Data reported in PMC7997397, ““Bottom-Up” Strategy for the Identification of Novel Soybean Peptides with Angiotensin-Converting Enzyme Inhibitory Activity” (Journal of Agricultural and Food Chemistry, 2020).
Like-named read-outs stand apart in the source and are kept apart here. Blank lines part the entries; values can stand above or below the compound they belong to. Ends that are not written are not given here. Peptide text beside a SMILES is read from it.

Legend:
ACE = details: read-out: IC50 ACE inhibition in vitro, cited from earlier work
From the text: It is well-recognized that soybean proteins contain many bioactive peptides exerting multiple health benefits, that is, hypocholesterolemic, antidiabetic, antitumor, and hypotensive activity. […] Moreover, after the hydrolysis of soybean proteins with pepsin, five peptides have been identified showing in vitro and in vivo hypotensive activity. […] Their bl ...

[1] = In vitro gastrointestinal digestion with pepsin and pancreatin; format: in vitro ADME; details: peptide 100 μM; pepsin 1:100 enzyme-to-substrate, pH 2.0, 37 °C, 90 min, then pancreatin 1:50, pH 7.2, 37 °C, 150 min; HPLC-Chip ion trap MS; mean ± s.d. of three independent experiments in triplicate; read-out: degraded after codigestion with pepsin and pancreatin vs undigested peptide
Method: Pepsin solution (4 mg/mL in NaCl) was added to Soy1 and LPYP (100 μM) at a 1:100 enzyme-to-substrate ratio (pH 2.0). The digestion was conducted at 37 °C for 90 min under continuous stirring, and then, the pH was adjusted to 7.2 with 1 M NaOH in order to inactivate the enzyme. Then, pancreatin (4 mg/mL in H2O) was added at a 1:50 enzyme-to-substrate ratio. After digestion, at 37 °C for 150 min, the enzyme was inactivated by heating at 95 °C for 10 min. Further details regarding the analysis are available in the “Supporting Information”.
Their metabolic propensity to be degraded by peptidases, which are physiologically active along the entire gastrointestinal tract, might dramatically influence the bioactivity of food peptides. The literature provides many studies dealing with the assessment of food bioactive peptide stability to the simulated gastric digestion.[22],[23] In order to in-depth characterize the multifunctional behavior of Soy1 and LPYP, their stability toward the in vitro gastric digestion was assessed using pepsin and pancreatin.
Figure 1 In vitro gastrointestinal digestion. […]
In vitro digestion of Soy1 and LPYP. […] Soy1 and LPYP samples undigested and after digestion were analyzed on a SL IT mass spectrometer interfaced with a HPLC- Chip Cube source (Agilent Technologies, Palo Alto, CA, USA). […] A blank was analyzed between samples to ensure

[2] = molecular target: T1, ACE in human kidney HK-2 cells (Homo sapiens, UniProt P12821); assay: ACE activity cell-based assay (in situ) in HK-2 cells; details: for IC50: renal HK-2 cells 5 × 10^4/well, 0.1–250 μM, 24 h, 37 °C, ACE activity in cell lysates with fluorescent substrate, mean ± s.d. of three independent experiments in triplicate
T1 construct: endogenous in cells; host or cells: HK-2 cells (ATCC)
Method: (§1) Soy1 and LPYP were tested on Caco-2 and HK2 cells (5 × 10^4/well in black 96-well plates) in 0.1–250.0 μM concentration ranges or vehicle in growth medium for 24 h at 37 °C. For a 2D cell culture on RADA16-Soy1 and RADA-LPYP hydrogels, Caco-2 cells were seeded on the surface of the abovementioned hydrogels at a density of 5 × 10^4/well. On the next day, the ACE inhibitory activity was measured using an ACE1 Activity Assay Kit (BioVision, Milpitas Blvd., Milpitas, CA, USA) following the manufacturer’s protocol. See the “Supporting Information” for further details on Acer activity cell-based assay.
(§2) In particular, Caco-2 and HK-2 cells (5 × 10^4/well) were treated with Soy1 and LPYP (0.1–250 μM) overnight. The following day, cells were lysated and the ACE activity was measured directly in the cell lysates using a fluorescent ACE substrate; in this assay, the fluorescent signal is proportional to the enzyme activity.
(§3) Figure 2 In situ evaluation of the ACE activity. […] Data represent the mean ± s.d. of three independent experiments performed in triplicate. […]
absence of carryover effects. The peptides were identified by comparing their retention times, MS profiles, and MS/MS fragmentation spectra with those of authentic standards.
ACE activity cell-based assay. […] The next day, The ACE inhibitory activity was measured using the ACE1 Activity Assay Kit (Biovision, Milpitas Blvd., Milpitias, CA, USA) following the manufacture’s protocol.
Briefly, cells were scraped in 30.0 μL of ice-cold ACE lysis buffer and transferred in an ice-cold microcentrifuge tube. […] Total proteins were quantified by Bradford method, and 2.0 μg of proteins (the equivalent of 2 μL) were added to 18.0 μL of ACE lysis buffer in each well in a black 96-well plates with clear bottoms. […] Then, 20.0 μL of 4% of ACE substrate (in assay buffer) was added in each well except the background one and the fluorescence (Ex/Em 330/430 nm) was measured in a kinetic mode for 10 min at 37 °C using […]

[3] = molecular target: T2, ACE in human intestinal Caco-2 cells (Homo sapiens, UniProt P12821); assay: ACE activity cell-based assay (in situ) in Caco-2 cells; details: nondifferentiated Caco-2 cells 5 × 10^4/well, 0.1–250 μM, 24 h, 37 °C; ACE activity in cell lysates with fluorescent substrate; mean ± s.d. of three independent experiments in triplicate
T2 construct: endogenous in cells; host or cells: Caco-2 cells (INSERM, Paris)
Method: as §1, §2, §3
absence of carryover effects. […]
ACE activity cell-based assay. […] The next day, The ACE inhibitory activity was measured using the ACE1 Activity Assay Kit (Biovision, Milpitas Blvd., Milpitias, CA, USA) following the manufacture’s protocol. […]

[4] = test system: differentiated Caco-2 cells; details: 2 h of incubation in the apical side of monolayers; cited from earlier work
From the text: Mature enterocytes represent the first physiological barrier that bioactive food peptides encounter after ingestion; therefore, their absorption is a dynamic proces ...

[5] = soybean peptides reported in the literature
[6] = peptides from pepsin hydrolysis of soybean proteins

T1 sequence (P12821 30-1306): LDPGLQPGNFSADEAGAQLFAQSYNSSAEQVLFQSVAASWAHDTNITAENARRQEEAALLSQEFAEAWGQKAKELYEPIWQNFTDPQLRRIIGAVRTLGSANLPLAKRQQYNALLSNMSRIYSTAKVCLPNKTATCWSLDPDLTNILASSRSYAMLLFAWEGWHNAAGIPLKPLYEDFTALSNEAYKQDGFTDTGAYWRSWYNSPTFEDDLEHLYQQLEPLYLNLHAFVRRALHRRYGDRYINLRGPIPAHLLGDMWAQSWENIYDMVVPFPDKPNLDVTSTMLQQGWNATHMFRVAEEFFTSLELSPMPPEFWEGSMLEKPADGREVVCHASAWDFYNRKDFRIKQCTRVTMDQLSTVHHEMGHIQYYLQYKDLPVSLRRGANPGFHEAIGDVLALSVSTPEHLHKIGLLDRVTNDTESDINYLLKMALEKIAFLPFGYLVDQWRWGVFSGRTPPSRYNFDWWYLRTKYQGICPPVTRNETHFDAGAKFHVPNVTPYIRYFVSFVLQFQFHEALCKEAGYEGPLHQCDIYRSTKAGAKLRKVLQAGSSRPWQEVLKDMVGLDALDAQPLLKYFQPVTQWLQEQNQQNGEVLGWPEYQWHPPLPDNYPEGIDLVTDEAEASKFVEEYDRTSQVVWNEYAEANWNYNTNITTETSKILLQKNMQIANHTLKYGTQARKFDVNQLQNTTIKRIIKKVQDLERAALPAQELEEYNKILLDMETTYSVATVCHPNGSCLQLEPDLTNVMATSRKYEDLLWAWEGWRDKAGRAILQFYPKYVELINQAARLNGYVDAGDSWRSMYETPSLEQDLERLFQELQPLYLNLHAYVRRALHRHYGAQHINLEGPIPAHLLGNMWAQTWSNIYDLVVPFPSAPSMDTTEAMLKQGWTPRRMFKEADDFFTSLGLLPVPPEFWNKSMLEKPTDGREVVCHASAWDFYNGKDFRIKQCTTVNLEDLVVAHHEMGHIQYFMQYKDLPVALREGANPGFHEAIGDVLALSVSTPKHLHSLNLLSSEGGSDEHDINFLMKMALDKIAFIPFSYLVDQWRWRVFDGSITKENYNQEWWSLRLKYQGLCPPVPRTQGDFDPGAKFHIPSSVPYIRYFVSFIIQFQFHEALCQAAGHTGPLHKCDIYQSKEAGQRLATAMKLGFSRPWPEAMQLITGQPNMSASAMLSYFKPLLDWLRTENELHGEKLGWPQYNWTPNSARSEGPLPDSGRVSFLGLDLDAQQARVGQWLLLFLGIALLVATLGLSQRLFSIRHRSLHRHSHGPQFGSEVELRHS
T2 sequence (P12821 30-1306): as above

Compound: SPYP [peptide from soybean glycinin hydrolysed by Monascus purpureus acid proteinase]
IC50 (ACE; [5]): 850 µM

Compound: LAIPVNKP
IC50 (ACE; [5]): 70 µM

metabolised at 4 h, 100 μM [1]: 28.5 ± 1.4%
IC50 [2]: 6.8 ± 0.2 µM
IC50 [3]: 5 ± 0.28 µM
Compound: CC(C)C[C@H](N)C(=O)N1CCC[C@H]1C(=O)N[C@@H](Cc1ccc(O)cc1)C(=O)N1CCC[C@H]1C(=O)O [LPYP] (H-LPYP-OH)

Compound: YLAGNQ [peptide from pepsin hydrolysis of soybean proteins]
IC50 (ACE; [6]): 14 µM

Compound: IYLL [peptide from pepsin hydrolysis of soybean proteins]
IC50 (ACE; [6]): 42 µM

metabolised at 4 h, 100 μM [1]: 27.7 ± 0.3%
IC50 [2]: 6 ± 0.35 µM
IC50 [3]: 14.7 ± 0.28 µM
Compound: IAVPTGVA [Soy1, IAVPTGVA]
absorption by differentiated Caco-2 cells [4]: better absorbed than LPYP
relative ACE inhibitory activity, renal (HK-2) vs intestinal (Caco-2) level ([2]; comparison of IC50 values in HK-2 and Caco-2 cells): twofold more active at the renal level than at the intestinal level

Compound: LPHF
IC50 (ACE; [5]): 670 µM

Compound: FFL
IC50 (ACE; [6]): 37 µM

Compound: VMDKPQG [peptide from pepsin hydrolysis of soybean proteins]
IC50 (ACE; [6]): 39 µM
